Active and inactive are the calls of the source.
Experiments:
[1] = miR-122 activators in hepatoma reporter cells, dose response, cell-based, Huh7 psiCHECK-miR122, Renilla luciferase, cherry-picked (AID 651956); format: functional;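 also: huh7 hepatoma cells stably carrying a psiCHECK-2 miR-122 sensor plasmid; renilla luciferase signal reporting endogenous miR-122 activity after 48 h compound exposure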
[2] = biological target: T1, Low molecular weight phosphotyrosine protein phosphatase (Homo sapiens, UniProt P24666); format: functional; details: read-out: IC50_Mean
T1 sequence (P24666 whole entry): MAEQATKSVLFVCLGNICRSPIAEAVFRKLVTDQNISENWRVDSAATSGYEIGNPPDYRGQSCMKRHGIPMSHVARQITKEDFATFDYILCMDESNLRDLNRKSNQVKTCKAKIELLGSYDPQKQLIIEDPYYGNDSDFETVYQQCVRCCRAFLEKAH

[3] = biological target: T1, Low molecular weight phosphotyrosine protein phosphatase; format: functional; details: read-out: IC50_Mean; remark: listed apart in the source
[4] = Inhibition of T. cruzi Tulahuen strain amastigotes in L-6 muscle cells Measured in Cell-Based and Microorganism Combination System Using Plate Reader - 2138-03_Inhibitor_Dose_CherryPick_Activity.; format: functional; details: Rattus norvegicus, L6
[5] = T. b. rhodesiense proliferation inhibition, dose response, STIB900 strain, plate reader, cherry pick (AID 651893); format: functional, cell-based; details: Trypanosoma brucei
[6] = intracellular Trypanosoma cruzi inhibitors in host cells – cell-based, plate reader, cherry-pick samples, set 3, dose response (AID 651818); format: functional;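 also: compounds incubated with infected cells for about four days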
[7] = T. cruzi intracellular amastigote growth inhibition, dose response, imaging, CA-I/72 strain, bovine embryo skeletal muscle, dry powder (AID 651885); format: functional, cell-based
[8] = L. donovani amastigote growth inhibition, dose response, axenic amastigotes, plate reader, cherry pick (AID 651891); format: functional, cell-based; details: Leishmania donovani
[9] = Inhibition of Plasmodium falciparum NF54 Measured in Cell-Based System Using Plate Reader - 2138-11_Inhibitor_Dose_CherryPick_Activity.; format: functional
[10] = cytotoxicity in L-6 rat myocytes, dose response, cytotoxicity control, cell-based, plate reader, cherry-pick (AID 651896); format: functional
[11] = MDA-MB-231 cell growth inhibition, dose response, cytotoxicity control for RAD54 inhibitor project, CellTiter-Glo luminescence, cherry-pick (AID 651692); format: functional, cell-based
[12] = inhibitors of SNCA 5'UTR-driven reporter translation, confirmation, H4 neuroglioma cells, luminescence (AID 1988); format: functional, cell-based
[13] = biological target: DNA repair protein RAD52 homolog (Homo sapiens, UniProt P43351); format: functional, biochemical
[14] = biological target: T2, DNA repair and recombination protein RAD54-like (Homo sapiens, UniProt Q92698); test: inhibitors of human RAD54 branch migration, confirmation, biochemical, fluorescence, cherry-picked samples, dose series (AID 651657); format: functional
T2 sequence (Q92698 whole entry): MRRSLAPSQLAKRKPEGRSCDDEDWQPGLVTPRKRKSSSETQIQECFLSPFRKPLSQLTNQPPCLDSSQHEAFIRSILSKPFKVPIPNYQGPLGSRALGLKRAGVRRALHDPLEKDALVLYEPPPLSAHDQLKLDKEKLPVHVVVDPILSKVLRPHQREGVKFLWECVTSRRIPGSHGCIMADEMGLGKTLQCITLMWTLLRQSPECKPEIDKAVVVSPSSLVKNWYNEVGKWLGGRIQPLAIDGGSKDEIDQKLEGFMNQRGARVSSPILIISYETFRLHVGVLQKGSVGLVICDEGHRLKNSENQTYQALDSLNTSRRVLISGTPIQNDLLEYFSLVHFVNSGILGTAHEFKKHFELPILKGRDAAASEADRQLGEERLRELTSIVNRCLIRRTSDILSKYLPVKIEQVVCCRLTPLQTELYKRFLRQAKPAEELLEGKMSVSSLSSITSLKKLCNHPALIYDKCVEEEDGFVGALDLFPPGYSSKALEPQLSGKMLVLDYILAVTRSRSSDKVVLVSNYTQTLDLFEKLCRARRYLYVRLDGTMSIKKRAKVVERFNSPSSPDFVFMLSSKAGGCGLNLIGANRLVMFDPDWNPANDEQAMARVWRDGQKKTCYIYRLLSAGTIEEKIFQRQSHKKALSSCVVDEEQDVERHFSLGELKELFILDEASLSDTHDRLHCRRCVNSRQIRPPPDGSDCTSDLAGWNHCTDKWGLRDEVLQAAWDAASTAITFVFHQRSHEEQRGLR

[15] = system: BJ; test: cytotoxicity toward Ras-transformed BJeLR fibroblasts, dose response, cell-based, alamar blue fluorescence, cherrypicked samples (AID 2631); format: functional; details: Homo sapiens;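 also: confirmatory dose-response assay in RAS-dependent BJ fibroblasts engineered with TERT, LT and ST, with cytotoxicity read by fluorescence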
[16] = system: BJ; test: cytotoxicity toward BJ-TERT fibroblasts, dose response, cell-based, RAS-independent, luminescence (AID 1933); format: functional; details: Homo sapiens
[17] = biological target: T3, Heat shock factor protein 1 (Mus musculus, UniProt P38532); test: inhibition of MG132-induced HSE-luciferase signal, confirmation, cell-based, NIH3T3, luminescence, dose retest (AID 2382); format: functional;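 also: NIH3T3 fibroblasts with HSF1-driven luciferase reporter stressed by proteasome inhibitor MG132; luminescence from HSF1-driven luciferase expression after 8 hours of MG132 stress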
T3 sequence (P38532 whole entry): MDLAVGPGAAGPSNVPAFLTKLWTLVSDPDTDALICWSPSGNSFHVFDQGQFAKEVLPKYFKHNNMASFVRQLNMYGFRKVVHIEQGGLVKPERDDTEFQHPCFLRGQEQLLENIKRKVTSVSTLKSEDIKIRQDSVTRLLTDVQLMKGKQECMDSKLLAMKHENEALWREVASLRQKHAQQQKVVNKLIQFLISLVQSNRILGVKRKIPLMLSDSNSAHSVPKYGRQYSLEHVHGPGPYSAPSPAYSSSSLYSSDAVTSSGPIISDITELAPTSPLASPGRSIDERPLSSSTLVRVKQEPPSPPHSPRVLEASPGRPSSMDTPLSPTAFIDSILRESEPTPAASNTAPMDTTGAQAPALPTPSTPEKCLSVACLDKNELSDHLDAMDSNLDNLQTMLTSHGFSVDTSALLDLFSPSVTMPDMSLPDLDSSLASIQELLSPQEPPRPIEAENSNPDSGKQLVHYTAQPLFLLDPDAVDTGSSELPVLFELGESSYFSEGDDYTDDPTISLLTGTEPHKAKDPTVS

[18] = system: BJ; test: cytotoxicity toward BJ-TERT-LT-ST fibroblasts, dose response, cell-based, RAS-independent, luminescence (AID 1935); format: functional; details: Homo sapiens;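 also: BJ fibroblasts immortalized with TERT plus LT and ST oncogenes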
[19] = biological target: Paired box protein Pax-8 (Homo sapiens, UniProt Q06710); test: inhibitors of PAX8-driven TPO luciferase reporter, dose response, RMG-I cells, cherry-pick (AID 687027); format: functional, cell-based;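 also: luciferase reporter driven by Pax8 target thyroperoxidase promoter measured by SteadyGlo luminescence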
[20] = inhibitors of firefly luciferase expression or activity, dose response, H4 neuroglioma cells, luminescence (AID 1990); format: functional, cell-based
[21] = biological target: T4, Ubiquitin-conjugating enzyme E2 N (Homo sapiens, UniProt P61088); format: functional;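 also: Dose-response confirmation in a TR-FRET assay detecting UBC13-driven polyubiquitin chain formation, inhibition measured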
T4 sequence (P61088 whole entry): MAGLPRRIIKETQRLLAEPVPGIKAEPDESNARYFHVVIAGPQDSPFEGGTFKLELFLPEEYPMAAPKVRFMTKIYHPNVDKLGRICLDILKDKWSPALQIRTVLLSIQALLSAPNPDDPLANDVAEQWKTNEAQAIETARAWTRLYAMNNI

[22] = non-specific cell cytotoxicity, dose response, cytotoxicity control for PAX8 inhibitor project, plate reader, dry powder samples (AID 743021); format: functional, cell-based
[23] = system: BJ; test: cells; format: functional, cell-based; details: Homo sapiens
[24] = cytotoxicity toward DRD oncogenic fibroblasts, dose response, cell-based, non-viral oncogenic, luminescence (AID 1934); format: functional; details: Homo sapiens
[25] = biological target: G-protein coupled receptor 55 (Homo sapiens, UniProt Q9Y2T6); test: GPR55 antagonists blocking LPI-driven arrestin recruitment, primary screen, imaging, U2OS, beta-arrestin-GFP, LPI agonist (AID 2013); format: functional;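 also: antagonist potency measured as reduced agonist-driven arrestin aggregation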
G-protein coupled receptor 55, sequence (Q9Y2T6 whole entry): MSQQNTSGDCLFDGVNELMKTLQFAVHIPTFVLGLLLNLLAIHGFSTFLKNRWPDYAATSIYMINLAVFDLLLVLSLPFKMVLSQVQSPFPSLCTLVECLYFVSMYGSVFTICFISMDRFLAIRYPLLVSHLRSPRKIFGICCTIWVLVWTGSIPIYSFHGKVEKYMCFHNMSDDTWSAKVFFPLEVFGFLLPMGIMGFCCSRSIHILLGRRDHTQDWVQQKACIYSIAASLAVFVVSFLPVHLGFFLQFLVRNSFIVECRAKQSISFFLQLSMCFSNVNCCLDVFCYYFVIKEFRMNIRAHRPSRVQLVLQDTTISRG

Paired box protein Pax-8, sequence (Q06710 whole entry): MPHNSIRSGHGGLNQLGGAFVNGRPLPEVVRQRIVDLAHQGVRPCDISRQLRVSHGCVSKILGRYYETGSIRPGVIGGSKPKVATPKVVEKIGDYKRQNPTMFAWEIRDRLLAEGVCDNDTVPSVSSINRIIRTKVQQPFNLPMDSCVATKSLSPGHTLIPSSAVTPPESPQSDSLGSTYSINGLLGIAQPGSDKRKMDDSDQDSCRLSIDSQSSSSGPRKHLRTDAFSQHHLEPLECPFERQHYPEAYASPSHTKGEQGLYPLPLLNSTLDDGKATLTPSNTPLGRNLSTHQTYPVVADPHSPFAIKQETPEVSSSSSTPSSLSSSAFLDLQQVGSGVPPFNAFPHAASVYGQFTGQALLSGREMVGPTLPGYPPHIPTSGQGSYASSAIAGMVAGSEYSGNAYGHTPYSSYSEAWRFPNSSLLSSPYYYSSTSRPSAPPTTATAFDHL
DNA repair protein RAD52 homolog, sequence (P43351 whole entry): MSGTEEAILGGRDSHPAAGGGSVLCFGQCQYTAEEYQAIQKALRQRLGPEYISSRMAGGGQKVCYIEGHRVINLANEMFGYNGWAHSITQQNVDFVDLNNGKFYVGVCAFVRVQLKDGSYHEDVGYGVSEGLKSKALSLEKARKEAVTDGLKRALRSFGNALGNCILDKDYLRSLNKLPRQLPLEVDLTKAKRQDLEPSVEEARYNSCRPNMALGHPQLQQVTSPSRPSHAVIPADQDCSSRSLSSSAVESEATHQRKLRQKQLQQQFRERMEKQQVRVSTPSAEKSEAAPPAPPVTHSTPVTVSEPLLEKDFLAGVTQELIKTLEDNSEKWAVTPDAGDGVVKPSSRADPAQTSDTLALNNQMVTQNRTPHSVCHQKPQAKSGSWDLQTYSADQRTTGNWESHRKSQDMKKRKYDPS

CN1C(=O)c2cc(NC(=O)c3cccc(C(F)(F)F)c3)ccc2OC[C@H]2O[C@H](CC(=O)NCCN3CCCC3)CC[C@H]21
AC50 [1]: 38.9 µM (active)

CC(=O)Nc1ccc(CNc2nc(NCC3CC3)nc3ccsc23)cc1
IC50 [2]: 17 µM (active) | IC50 [3]: 12.6 µM (active)

C[C@@H]1CN([C@@H](C)CO)C(=O)c2cccc(NC(=O)c3ccncc3)c2O[C@H]1CN(C)Cc1ccccc1
IC50 [4]: 4.77 µM (inactive) | IC50 [5]: 5.33 µM (inactive) | AC50 [6]: 0.08 µM (active) | IC50 [7]: 10 µM (inconclusive) | IC50 [8]: > 100 µM (inactive) | IC50 [9]: 4.77 µM (inactive) | IC50 [10]: > 100 µM (inactive)

CN(C)CCNC(=O)c1cc2c(s1)-c1ccc(Cl)cc1SC2
AC50 [11]: 11 µM (active) | EC50 [12]: 9.06 µM (active) | AC50 [13]: 8.31 µM (active) | AC50 [14]: 60.8 µM (active) | EC50 [15]: 2.18 µM (active) | EC50 [16]: 4.54 µM (active) | EC50 [17]: 13.5 µM (active) | EC50 [18]: 5.57 µM (inconclusive) | AC50 [19]: 9.29 µM (active) | EC50 [20]: > 120 µM (not active) | IC50 [21]: > 20 µM (inactive) | AC50 [22]: 29.3 µM (active) | EC50 [23]: 5.2 µM (inconclusive) | EC50 [24]: 5.06 µM (active) | IC50 [25]: 6.25 µM (active)
